# Measured values as given in PMC11466185, “Mechanisms and efficacy of small molecule latency-promoting agents to inhibit HIV reactivation ex vivo” (JCI Insight, 2024).
# “And” between values parts separate entries of the source, which are not always exact repeats. Identical values can stand only once.
# Tests used:
# [1] = test system: HIV transcripts (TAR, LLTR, Pol, PolyA, TatRev); test: Latency reversal assay: cell-associated HIV transcripts (RT-ddPCR) 24 hours after anti-CD3/CD28 activation of PBMCs from ART-suppressed PWH; assay type: cell-based; parameters: key to TatRev: % of activated DMSO control, normalized to 1 μg total RNA; Elongated (LLTR) HIV transcripts, median relative to activated DMSO, initial screening / Midtranscribed (Pol) HIV transcripts, median relative to activated DMSO, initial screening / Multiply spliced (TatRev) HIV transcripts, median relative to activated DMSO, initial screening: concentration or dose not given beside the values; conditions: for HIV transcriptional elongation, ratio LLTR/TAR: Figure 3B; for HIV transcriptional completion, ratio PolyA/LLTR: Figure 3C; for Pol HIV transcripts (DMSO αCD3/28 = 100) / PolyA HIV transcripts (DMSO αCD3/28 = 100) / TatRev HIV transcripts (DMSO αCD3/28 = 100): αCD3/28-activated, ruxolitinib 4μM, triptolide 25-50nM, alvocidib 40nM, dinaciclib 8nM, AZD4573 8nM, quercetin 5μM, pladienolide B 10nM, isoginkgetin 25μM, herboxidiene 5nM, KRIBB11 2.5μM, tanespimycin 5μM, mithramycin A 25nM; for PolyA/LLTR / TatRev/PolyA / LLTR/TAR: DMSO+CD3/28 = 1, Fig 3B, C and D; for PolyA / TatRev: DMSO+αCD3/28 = 100, Fig 3A
# Method in brief: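 PBMCs from ART-suppressed people with HIV (6 × 10^6 cells/well) treated with drug in DMSO, activated with anti-CD3/CD28 beads with antiretrovirals, harvested after 24 hours. TAR, LLTR, Pol, PolyA and TatRev transcripts measured by RT-ddPCR, normalized to 1 μg total RNA, expressed as % of activated DMSO control.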
# PBMCs = test: Total number of live cells (proliferation) by trypan blue staining at day 6; assay type: cell-based, human; conditions: for Total live cell numbers (proliferation) compared with activated DMSO (in words) / Total number of live cells (Fig 6A): day 6; for Total live cell numbers (proliferation) compared with activated DMSO (in words): Figure 6A; for Fig 6B: total live cells relative to DMSO+CD3/28: DMSO+CD3/28 = 100
# Procedure: Some of our candidate LPAs can block the effects of T cell activation, which could affect T cell proliferation. Therefore, we evaluated the extent to which variations in the level of infected cells may contribute to reductions in different HIV RNA transcripts. We measured the total number of viable cells (as a measure of proliferation) and the conserved U3-U5 LTR HIV DNA region (as a measure of total infection frequency) at day 6.
# (A) After 6 days, the total number of live cells was measured by trypan blue staining and then normalized to the levels of the activated DMSO (% of activated DMSO). All conditions were tested in the presence of CD3^+/CD28^+ T cell–activating beads, except for the unactivated DMSO condition. Bars indicate medians, and different colors indicate individual study participants. Comparisons were performed using Wilcoxon’s signed-rank test. (B) Total cellular DNA was extracted, and the levels of U3-U5 HIV DNA were measured to quantify infection frequency at 6 days. HIV DNA levels were normalized to copies per 10^6 cells using the input of cellular DNA (assuming 1 μg of total DNA corresponds to 160,000 cells) and then normalized to the activated DMSO control (% of activated DMSO). Bars indicate medians, and different colors indicate individual study participants.
# [2] = 24 hours, compared with activated DMSO
# [3] = initial screening, 2 participants, 24 hours, Supplemental Figure 2
# [4] = 2.5μM, 24 h after αCD3/28 activation, each column one participant
structure (smiles),measurement,setting,value
C=CCNC1=C2C[C@@H](C)C[C@H](OC)[C@H](O)[C@@H](C)/C=C(\C)[C@H](OC(N)=O)[C@@H](OC)/C=C\C=C(/C)C(=O)NC(=CC1=O)C2=O [tanespimycin],"HIV transcriptional elongation, ratio LLTR/TAR",[1]; [2],inhibited
same,"Elongated (LLTR) HIV transcripts, median relative to activated DMSO, initial screening",[1]; [3],49%
same,"Midtranscribed (Pol) HIV transcripts, median relative to activated DMSO, initial screening",[1]; [3],31%
same,Total live cell numbers (proliferation) compared with activated DMSO (in words),PBMCs,significantly lower
CNc1ccc([N+](=O)[O-])c(Nc2ccc3[nH]ncc3c2)n1 [KRIBB11],LLTR HIV transcripts (DMSO+αCD3/28 = 100),[1]; [4],71.02 and 48.35 and 38.5 and 36.33 and 35.09 and 15.92 and 24.32
same,Pol HIV transcripts (DMSO+αCD3/28 = 100),[1]; [4],19.01 and 13.73 and 14.61 and 76.94 and 12.5 and 1.36 and 0
same,TAR HIV transcripts (DMSO+αCD3/28 = 100),[1]; [4],122.57 and 166.06 and 91.93 and 75.64
same,TatRev HIV transcripts (DMSO+αCD3/28 = 100),[1]; [4],11.03 and 9.21 and 38.96 and 12.13 and 2.02 and 0 and 8.77
same,"HIV transcriptional elongation, ratio LLTR/TAR",[1]; [2],inhibited
same,"HIV transcriptional completion, ratio PolyA/LLTR",[1]; [2],reduced completion
same,Reduction of multiply spliced or completed HIV transcripts in drug screen (selection as candidate LPA),"[1]; initial screening, 2 participants, 24 hours",more than 50%
same,"Elongated (LLTR) HIV transcripts, median relative to activated DMSO, initial screening",[1]; [3],60%
same,"Midtranscribed (Pol) HIV transcripts, median relative to activated DMSO, initial screening",[1]; [3],16%
same,Pol HIV transcripts (DMSO αCD3/28 = 100),[1]; participant 2027,73.68
same,PolyA HIV transcripts (DMSO αCD3/28 = 100),[1]; participant 2027,106.67
same,TatRev HIV transcripts (DMSO αCD3/28 = 100),[1]; participant 2027,11.11
same,Pol HIV transcripts (DMSO αCD3/28 = 100),[1]; participant 2147a,33.33
same,PolyA HIV transcripts (DMSO αCD3/28 = 100),[1]; participant 2147a,22.8
same,TatRev HIV transcripts (DMSO αCD3/28 = 100),[1]; participant 2147a,46.99
same,Pol HIV transcripts (DMSO αCD3/28 = 100),[1]; participant 2256,169.23
same,PolyA HIV transcripts (DMSO αCD3/28 = 100),[1]; participant 2256,89.76
same,TatRev HIV transcripts (DMSO αCD3/28 = 100),[1]; participant 2256,84.19
same,PolyA HIV transcripts (DMSO αCD3/28 = 100),[1]; participant 2461,176.92
same,Pol HIV transcripts (DMSO αCD3/28 = 100),[1]; participant 2747,8.97
same,PolyA HIV transcripts (DMSO αCD3/28 = 100),[1]; participant 2747,19.67
same,TatRev HIV transcripts (DMSO αCD3/28 = 100),[1]; participant 2747,30
same,Multiply spliced HIV transcripts (TatRev) (Fig 1B),"[1]; study participant 150a, 24 hours",11.03 % of activated DMSO
same,PolyA/LLTR,[1]; study participant 150a,0.3562
same,TatRev/PolyA,[1]; study participant 150a,0.4361
same,PolyA,[1]; study participant 150a,25.3
same,TatRev,[1]; study participant 150a,11.03
same,Multiply spliced HIV transcripts (TatRev) (Fig 1B),"[1]; study participant 152, 24 hours",9.21 % of activated DMSO
same,PolyA/LLTR,[1]; study participant 152,0.4136
same,TatRev/PolyA,[1]; study participant 152,0.4605
same,PolyA,[1]; study participant 152,20
same,TatRev,[1]; study participant 152,9.21
same,PolyA/LLTR,[1]; study participant 163,0.6494
same,TatRev/PolyA,[1]; study participant 163,1.558
same,PolyA,[1]; study participant 163,25
same,TatRev,[1]; study participant 163,38.96
same,LLTR/TAR,[1]; study participant 1379,0.1731
same,PolyA/LLTR,[1]; study participant 1379,0.3046
same,TatRev/PolyA,[1]; study participant 1379,0
same,PolyA,[1]; study participant 1379,4.85
same,TatRev,[1]; study participant 1379,0
same,LLTR/TAR,[1]; study participant 2147b,0.3199
same,PolyA/LLTR,[1]; study participant 2147b,0.5626
same,TatRev/PolyA,[1]; study participant 2147b,0.4866
same,PolyA,[1]; study participant 2147b,34.68
same,TatRev,[1]; study participant 2147b,12.13
same,LLTR/TAR,[1]; study participant 2256,0.2113
same,PolyA/LLTR,[1]; study participant 2256,0.2703
same,TatRev/PolyA,[1]; study participant 2256,0.2127
same,PolyA,[1]; study participant 2256,9.49
same,TatRev,[1]; study participant 2256,2.02
same,LLTR/TAR,[1]; study participant 5557,0.3215
same,PolyA/LLTR,[1]; study participant 5557,0.6238
same,TatRev/PolyA,[1]; study participant 5557,0.5784
same,PolyA,[1]; study participant 5557,15.17
same,TatRev,[1]; study participant 5557,8.77
same,Total live cell numbers (proliferation) compared with activated DMSO (in words),PBMCs,did not change proliferation rates
same,Fig 6B: total live cells relative to DMSO+CD3/28,PBMCs; participant 2027,80
same,Fig 6B: total live cells relative to DMSO+CD3/28,PBMCs; participant 2147a,78.71
same,Fig 6B: total live cells relative to DMSO+CD3/28,PBMCs; participant 2147b,84.85
same,Fig 6B: total live cells relative to DMSO+CD3/28,PBMCs; participant 2256,100
same,Fig 6B: total live cells relative to DMSO+CD3/28,PBMCs; participant 2461,133.29
same,Fig 6B: total live cells relative to DMSO+CD3/28,PBMCs; participant 2747,114.29
same,Total number of live cells (Fig 6A),PBMCs; study participant 150a,109.33 % of activated DMSO
same,Total number of live cells (Fig 6A),PBMCs; study participant 156,86.05 % of activated DMSO
same,Total number of live cells (Fig 6A),PBMCs; study participant 163,93.17 % of activated DMSO
same,Total number of live cells (Fig 6A),PBMCs; study participant 2027,77.91 % of activated DMSO
same,Total number of live cells (Fig 6A),PBMCs; study participant 2147a,131.05 % of activated DMSO
same,Total number of live cells (Fig 6A),PBMCs; study participant 2147b,144.41 % of activated DMSO
same,Total number of live cells (Fig 6A),PBMCs; study participant 2256,80.69 % of activated DMSO
same,Total number of live cells (Fig 6A),PBMCs; study participant 2461,93.23 % of activated DMSO
same,Total number of live cells (Fig 6A),PBMCs; study participant 2747,107.08 % of activated DMSO
CC(C)[C@]12O[C@H]1[C@@H]1O[C@]13[C@]1(O[C@H]1C[C@H]1C4=C(CC[C@@]13C)C(=O)OC4)[C@@H]2O [triptolide],"HIV transcriptional elongation, ratio LLTR/TAR",[1]; [2],no impact
same,"HIV transcriptional completion, ratio PolyA/LLTR",[1]; [2],reduced completion
same,"HIV multiple splicing, ratio TatRev/PolyA","[1]; 24 hours, compared with activated DMSO, Figure 3D",reduce HIV multiple splicing
same,Decrease in initiated TAR transcripts,"[1]; after activation, relative to activated DMSO",more than 95%
same,"Multiply spliced (TatRev) HIV transcripts, median relative to activated DMSO, initial screening","[1]; initial screening, 2 participants, 24 hours, Figure 1B, Supplemental Figure 2",0%
same,"Elongated (LLTR) HIV transcripts, median relative to activated DMSO, initial screening",[1]; [3],21%
same,"Midtranscribed (Pol) HIV transcripts, median relative to activated DMSO, initial screening",[1]; [3],9%
same,Total live cell numbers (proliferation) compared with activated DMSO (in words),PBMCs,significantly lower
